ChEMBL document CHEMBL5729376, “SSAO inhibitors and use thereof” (2022)

Tests used:
[1] = target: T1, Amine oxidase [flavin-containing] A (Homo sapiens, UniProt P21397); test: (§1) SSAO Activity Assay: Amine oxidase activity of recombinant hSSAO, hMAO-A, and hMAO-B isoforms are measured using the MAO-Glo assay kit (Promega, V1402). Ten nL test compounds (with DMSO as vehicle, 0.1% v/v for hSSAO, hMAO-A and hMAO-B) were added into assay plates by Echo, and pre-incubated with 5 μL of enzyme for 30 mins at room temperature before the addition of 5 μL of luminogenic substrate. The substrate concentration is 40 μM for human recombinant SSAO, 40 μM for human recombinant MAO-A, and 4 μM for human recombinant MAO-B. The hSSAO and hMAO-A assays were conducted in the MAO-A reaction buffer in the kit, and the MAO-B assay was conducted in the MAO-B reaction buffer. Oxidation of the substrate was conducted for 1 hr, before the addition of detecting reagent according the manufacture's protocol. The IC50 value of the tested compounds was calculated by fitting the dose response curve using a 4-parameter non-linear regression routine.
T1 sequence (P21397 whole entry): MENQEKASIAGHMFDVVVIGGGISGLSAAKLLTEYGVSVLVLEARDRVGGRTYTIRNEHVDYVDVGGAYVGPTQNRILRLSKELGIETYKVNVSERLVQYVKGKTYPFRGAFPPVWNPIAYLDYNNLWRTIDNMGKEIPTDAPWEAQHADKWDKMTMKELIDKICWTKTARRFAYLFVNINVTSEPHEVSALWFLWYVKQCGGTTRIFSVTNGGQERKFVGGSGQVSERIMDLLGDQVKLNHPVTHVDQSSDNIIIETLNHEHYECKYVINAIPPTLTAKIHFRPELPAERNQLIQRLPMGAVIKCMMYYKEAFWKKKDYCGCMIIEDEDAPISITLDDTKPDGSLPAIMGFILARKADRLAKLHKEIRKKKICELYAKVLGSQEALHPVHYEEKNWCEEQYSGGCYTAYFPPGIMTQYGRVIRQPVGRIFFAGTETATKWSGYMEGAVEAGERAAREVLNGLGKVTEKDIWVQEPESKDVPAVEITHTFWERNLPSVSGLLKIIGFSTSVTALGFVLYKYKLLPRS

[2] = target: T2, Amine oxidase [flavin-containing] B (Homo sapiens, UniProt P27338); test: as §1
T2 sequence (P27338 whole entry): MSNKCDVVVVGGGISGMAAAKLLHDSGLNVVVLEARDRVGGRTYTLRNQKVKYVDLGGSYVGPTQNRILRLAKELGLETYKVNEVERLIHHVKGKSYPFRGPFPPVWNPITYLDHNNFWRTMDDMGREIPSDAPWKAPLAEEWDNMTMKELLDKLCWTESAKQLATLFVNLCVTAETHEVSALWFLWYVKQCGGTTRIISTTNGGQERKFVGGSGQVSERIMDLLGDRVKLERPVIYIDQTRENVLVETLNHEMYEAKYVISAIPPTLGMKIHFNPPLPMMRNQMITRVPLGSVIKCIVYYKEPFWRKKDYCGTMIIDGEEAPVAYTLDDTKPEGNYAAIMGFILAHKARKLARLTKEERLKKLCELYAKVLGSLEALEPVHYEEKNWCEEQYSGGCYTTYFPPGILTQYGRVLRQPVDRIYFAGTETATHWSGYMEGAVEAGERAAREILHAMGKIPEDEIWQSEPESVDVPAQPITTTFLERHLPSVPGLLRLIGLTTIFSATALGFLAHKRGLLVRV

| IC50 [1] [µM] | IC50 [2] [µM] | Structure (SMILES) |
| --- | --- | --- |
| > 30 | > 30 | CC(C)(C)C(=O)N1CCC(CS(=O)(=O)c2ccc(OC/C(=C/F)CN)cc2)CC1 |
| > 30 | > 30 | CN(C(=O)C1CC1)C12CCC(CS(=O)(=O)c3ccc(OC/C(=C/F)CN)cc3)(CC1)CC2 |
| < 10 | < 10 | NC/C(=C\F)COc1ccc(S(=O)(=O)CC2CCOCC2)c(F)c1 |
| > 30 | 10 to 30 | NC/C(=C\F)COc1ccc(S(=O)(=O)COCC2CCOCC2)cc1 |
| > 30 | < 10 | COCC(COC)OCS(=O)(=O)c1ccc(OC/C(=C/F)CN)cc1 |
| 10 to 30 | 10 to 30 | CO[C@H]1CC[C@@H](CS(=O)(=O)c2ccc(OC/C(=C/F)CN)cc2)CC1 |
| < 10 | – | CC(C)(C)C(=O)NC12CCC(CS(=O)(=O)c3ccc(OC/C(=C/F)CN)cc3)(CC1)C2 |
| > 30 | < 10 | CC1(C)COC(CS(=O)(=O)c2ccc(OC/C(=C/F)CN)cc2)CO1 (centres undefined) |
| > 30 | > 30 | C[C@H](CN1CCCCC1=O)CS(=O)(=O)c1ccc(OC/C(=C/F)CN)cc1 |
| > 30 | – | NC/C(=C\F)COc1ccc(S(=O)(=O)CC23CCC(C4(O)CC4)(CC2)CC3)cc1 |
| 10 to 30 | 10 to 30 | NC/C(=C\F)COc1ccc(S(=O)(=O)C[C@H]2CC[C@H](O)CC2)cc1 |
| > 30 | < 10 | CC(C)n1nc(CS(=O)(=O)c2ccc(OC/C(=C/F)CN)cc2)ccc1=O |
| > 30 | > 30 | COCCOCS(=O)(=O)c1ccc(OC/C(=C/F)CN)cc1 |
| – | < 10 | N#CC1(CS(=O)(=O)c2ccc(OC/C(=C/F)CN)cc2)CCOCC1 |
| > 30 | < 10 | COCC(COC)CS(=O)(=O)c1ccc(OC/C(=C/F)CN)cc1 |
| > 30 | > 30 | CCN(CC(C)CS(=O)(=O)c1ccc(OC/C(=C/F)CN)cc1)C(=O)C(C)C (centres undefined) |
| > 30 | > 30 | NC/C(=C\F)COc1ccc(S(=O)(=O)CC2CCN(C(=O)C3CC3)CC2)c(Cl)c1 |
| > 30 | < 10 | COC1(CS(=O)(=O)c2ccc(OC/C(=C/F)CN)cc2)CCOCC1 |
| > 30 | – | NC/C(=C\F)COc1ccc(S(=O)(=O)CC23CCC(O)(CC2)CC3)cc1 |
| > 30 | > 30 | NC/C(=C\F)COc1ccc(S(=O)(=O)CC23CCC(N4CCCS4(=O)=O)(CC2)CC3)cc1 |
| > 30 | – | NC/C(=C\F)COc1ccc(S(=O)(=O)CC23CCC(NC(=O)C4CC4)(CC2)CC3)cc1 |
| > 30 | – | NC/C(=C\F)COc1ccc(S(=O)(=O)COCC2CCN(C(=O)C3(C(F)(F)F)CC3)CC2)cc1 |
| > 30 | > 30 | NC/C(=C\F)COc1ccc(S(=O)(=O)COC2CCN(C(=O)C3CCCC3)CC2)cc1 |

| IC50 [1] [µM] | IC50 [2] [µM] | Structure (SMILES) |
| --- | --- | --- |
| > 30 | < 10 | CC(C)C(=O)Nc1ccc(CS(=O)(=O)c2ccc(OC/C(=C/F)CN)cc2)cc1 |
| > 30 | > 30 | C[C@@H](CN1CCCCC1=O)CS(=O)(=O)c1ccc(OC/C(=C/F)CN)cc1 |
| > 30 | < 10 | CC(C)C(=O)N1CC(CS(=O)(=O)c2ccc(OC/C(=C/F)CN)cc2)C1 |
| – | < 10 | CC(C)(C)C(=O)N1CCN(CS(=O)(=O)c2ccc(OC/C(=C/F)CN)cc2)C(=O)C1 |
| > 30 | < 10 | NC/C(=C\F)COc1ccc(S(=O)(=O)COC2CCOCC2)cc1 |
| > 30 | – | NC/C(=C\F)COc1ccc(S(=O)(=O)CC23CCC(C(=O)NC4CCC4)(CC2)CC3)cc1 |
| > 30 | – | CC1CCN(C23CCC(CS(=O)(=O)c4ccc(OC/C(=C/F)CN)cc4)(CC2)CC3)C1=O (centres undefined) |
| 10 to 30 | < 10 | NC/C(=C\F)COc1ccc(S(=O)(=O)C[C@H]2CCOC2)cc1 |
| 10 to 30 | > 30 | NC/C(=C\F)COc1ccc(S(=O)(=O)CC2CCCN(C(=O)C3CCCC3)C2)cc1 (centres undefined) |
| > 30 | < 10 | NC/C(=C\F)COc1ccc(S(=O)(=O)CC2CCOCC2)cc1 |
| > 30 | > 30 | N#CC1(COCS(=O)(=O)c2ccc(OC/C(=C/F)CN)cc2)CCOCC1 |
| > 30 | > 30 | NC/C(=C\F)COc1ccc(S(=O)(=O)CC23CCC(C(=O)N4CCC(F)(F)CC4)(CC2)CC3)cc1 |
| > 30 | < 10 | NC/C(=C\F)COc1ccc(S(=O)(=O)Cc2cnc(N3CCCC3)nc2)cc1 |
| > 30 | < 10 | N#CC12CCC(CS(=O)(=O)c3ccc(OC/C(=C/F)CN)cc3)(CC1)CC2 |
| > 30 | > 30 | C[C@H](CN1CCCC1=O)CS(=O)(=O)c1ccc(OC/C(=C/F)CN)cc1 |
| > 30 | > 30 | CC(C)C(=O)N1CCC(C)(CS(=O)(=O)c2ccc(OC/C(=C/F)CN)cc2)CC1 |
| – | < 10 | CC1(CS(=O)(=O)c2ccc(OC/C(=C/F)CN)cc2)CCN(C(=O)C2(C)CC2)CC1 |
| > 30 | < 10 | CC1(CS(=O)(=O)c2ccc(OC/C(=C/F)CN)cc2)CCOCC1 |
| – | < 10 | NC/C(=C\F)COc1ccc(S(=O)(=O)CC2CCOCC2)c(Cl)c1 |
| > 30 | < 10 | CC(C)C(=O)N1CCC(C)(COCS(=O)(=O)c2ccc(OC/C(=C/F)CN)cc2)CC1 |
| > 30 | > 30 | NC/C(=C\F)COc1ccc(S(=O)(=O)Cc2ccc(C(=O)N3CCCC3)cc2)cc1 |
| > 30 | > 30 | CC(C)N(C)C(=O)C(C)(C)CS(=O)(=O)c1ccc(OC/C(=C/F)CN)cc1 |
| > 30 | > 30 | NC/C(=C\F)COc1ccc(S(=O)(=O)CC23CCC(NC(=O)CC(F)(F)F)(CC2)CC3)cc1 |

| IC50 [1] [µM] | IC50 [2] [µM] | Structure (SMILES) |
| --- | --- | --- |
| 10 to 30 | < 10 | CO[C@H]1CC[C@H](CS(=O)(=O)c2ccc(OC/C(=C/F)CN)cc2)CC1 |
| > 30 | > 30 | C[C@@H](CN1CCCC1=O)CS(=O)(=O)c1ccc(OC/C(=C/F)CN)cc1 |
| > 30 | – | CC(C)C(=O)N(C)CC(C)(C)CS(=O)(=O)c1ccc(OC/C(=C/F)CN)cc1 |
| – | < 10 | NC/C(=C\F)COc1ccc(S(=O)(=O)CC2CCN(C(=O)C34CC(F)(C3)C4)CC2)cc1 |
| > 30 | < 10 | CC1(COCS(=O)(=O)c2ccc(OC/C(=C/F)CN)cc2)CCOCC1 |
| > 30 | > 30 | NC/C(=C\F)COc1ccc(S(=O)(=O)CC23CCC(C4(NC(=O)C5CC5)CC4)(CC2)CC3)cc1 |
| < 10 | < 10 | CC1(CS(=O)(=O)c2ccc(OC/C(=C/F)CN)cc2F)CCOCC1 |
| > 30 | < 10 | CC1(COCS(=O)(=O)c2ccc(OC/C(=C/F)CN)cc2)CCN(C(=O)C(C)(C)C)CC1 |
| < 10 | < 10 | NC/C(=C\F)COc1ccc(S(=O)(=O)C[C@H]2CC[C@@H](O)CC2)cc1 |
| > 30 | < 10 | NC/C(=C\F)COc1ccc(S(=O)(=O)C[C@@H]2CCCO2)cc1 |
| > 30 | < 10 | NC/C(=C\F)COc1ccc(S(=O)(=O)C[C@H]2CCCO2)cc1 |
| < 10 | < 10 | NC/C(=C\F)COc1ccc(S(=O)(=O)CC2CCOCC2)cc1F |
| – | < 10 | CC1(C(=O)N2CCN(CS(=O)(=O)c3ccc(OC/C(=C/F)CN)cc3)C(=O)C2)CCC1 |
| > 30 | – | CN(C)C(=O)C12CCC(CS(=O)(=O)c3ccc(OC/C(=C/F)CN)cc3)(CC1)CC2 |
| > 30 | < 10 | NC/C(=C\F)COc1ccc(S(=O)(=O)CC2(O)CCOCC2)cc1 |
| > 30 | – | NC/C(=C\F)COc1ccc(S(=O)(=O)Cc2ccc(C(=O)NC3CCC3)c(C(F)(F)F)c2)cc1 |
| > 30 | < 10 | NC/C(=C\F)COc1ccc(S(=O)(=O)C[C@H]2CC[C@H](NC(=O)C3CC3)CC2)cc1 |
| > 30 | – | CCN(CC(C)(C)CS(=O)(=O)c1ccc(OC/C(=C/F)CN)cc1)C(=O)C(C)C |
| 10 to 30 | < 10 | NC/C(=C\F)COc1ccc(S(=O)(=O)C[C@@H]2CCOC2)cc1 |
| > 30 | – | COCS(=O)(=O)c1ccc(OC/C(=C/F)CN)cc1 |
| > 30 | < 10 | CC(C)n1ccc(CS(=O)(=O)c2ccc(OC/C(=C/F)CN)cc2)cc1=O |
| – | > 30 | CC(C)C(=O)N1CCC(CS(=O)(=O)c2ccc(OC/C(=C/F)CN)cc2)C1 (centres undefined) |
| < 10 | < 10 | NC/C(=C\F)COc1ccc(S(=O)(=O)CC2CCN(C(=O)c3ccc(F)cc3)CC2)cc1 |
